Measured values published in patent US20230227437A1, “IMMUNOMODULATOR” (priority 2020, published 2023).

How the values were obtained:
hIL-17A = target: T1, hIL-17A (Homo sapiens, UniProt Q16552); experiment: Inhibition of hIL-17A-induced chemokine GROα/CXCL1 production in HT-29 cell; type: cell-based
T1 construct: purchased R&D 317-ILB
T1 sequence (Q16552 20-155 limits assumed): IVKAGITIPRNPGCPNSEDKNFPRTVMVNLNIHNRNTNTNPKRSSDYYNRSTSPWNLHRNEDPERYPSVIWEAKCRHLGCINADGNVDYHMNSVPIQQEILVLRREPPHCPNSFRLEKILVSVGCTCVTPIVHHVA
Description: Human colorectal adenocarcinoma cell HT-29 was inoculated to a 96-well plate (5×10^4 for per well), and incubated at 37° C. on an incubator overnight. A mixture of 30 ng/mL hIL-17A protein (R&D, #317-ILB) with gradient concentrations of IL-17A small molecule inhibitors or with 0.3 μg/mL positive control IL-17A antibody (R&D, #AF-317-NA) was incubated for 1 h at 37° C., and added into the 96-well plate to incubated with HT-29 at 37° C. for 48 h. A level of GROα in a cell culture supernatant was then detected using an ELISA kit for GROα (Cisbio, #62HCXC1peg).
Inhibitory effect of the compound prepared in Examples on hIL-17A-induced chemokine GROα/CXCL1 production in HT-29 cell was tested according to the methods of Experimental Examples 1 and 2. […] “-” indicated not tested. According to the results, the compounds provided herein have good human IL-17A inhibitory activity and can be effectively used in the treatment of diseases associated with abnormal hIL-17A activity.

human IL-17A (hIL-17A) = target: T2, human IL-17A (hIL-17A) (Homo sapiens, UniProt Q16552); experiment: IL-17A enzyme-linked immunosorbent assay (competitive ELISA, receptor-ligand binding)
T2 construct: purchased Sino Biological Inc. 12047-H07B
T2 sequence (Q16552 24-155): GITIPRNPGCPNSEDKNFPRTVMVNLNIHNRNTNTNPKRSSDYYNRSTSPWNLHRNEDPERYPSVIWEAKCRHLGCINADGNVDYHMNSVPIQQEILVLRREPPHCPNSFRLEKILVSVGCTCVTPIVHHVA
Description: The inhibition of receptor-ligand binding by human IL-17A (hIL-17A) inhibitors was detected by competitive ELISA. A 96-well plate was inoculated 0.2 μg/ml IL-17 (Sino Biological Inc. Cat #12047-H07B) for incubation at 37° C. for 30 min, 100 μL for per well. The 96-well plate was washed four times with phosphate buffered saline (PBS) containing Tween-20 (PBST, 0.05% Tween-20), 200 μL for per well each time. 200 μL of 5% skim milk were added into the 96-well plate for incubation on a shaker at 25° C. for 30 min. The 96-well plate was washed four times with PBST (0.05% Tween-20), and added with 89 μL of PBST and 1 μL of a compound to be measured (100×), in which a concentration the compound to be measured (100×) was 0.003 μM-30 μM. The mixture was mixed evenly and incubated at 25° C. for 10 min. The mixture was added with 10 μL of 16 nM IL-17R, followed by incubation at 25° C. for 30 min. After washing the 96-well plate 4 times, 100 μL of anti-Fc tag horseradish peroxidase (HRP) coupled antibody were added for incubation on a shaker at 25° C. for 30 min. After washing the 96-well plate 4 times, 100 μL of 3,3′,5,5′-tetramethylbenzidine (TMB) substrate solution were added to the 96-well plate for incubation away from light at 25° C. After addition of 20% HCl, an absorbance was measure by a microplate reader at 450 nm.
The compounds prepared according to the above method were assayed for human IL-17A inhibitory activity.

hIL-17A protein = target: T3, hIL-17A protein (Homo sapiens, UniProt Q16552); experiment: Binding to hIL-17A protein through surface plasmon resonance (SPR, Biacore 8K); conditions: for ka / kd: SPR; for binding to hIL-17A (SPR, in words): compared with the positive compound
T3 sequence (Q16552 24-155): T2 sequence (Q16552 24-155)
Description: The binding of the compounds provided herein to the hIL-17A protein was tested using SPR, and analyzed using a Biacore 8K system. A positive compound was the compound of Example 32 in WO2020/127685A1.

[1] = Drug metabolism properties (pharmacokinetics) in mice; type: in vivo; conditions: mouse, plasma, intravenous injection/oral gavage, read-out: Oral bioavailability F % (mice)
Description: In order to investigate the drug metabolism property of the compounds provided herein in mice, a compound solution was given to 6 mice by intravenous injection/oral gavage at corresponding doses. Mice were divided into groups A and B for each administration, where anticoagulated whole blood was collected from group A at 5 min, 30 min, 2 h and 8 h after drug administration; and anticoagulated whole blood was collected from group B at 15 min, 1 h, 4 h and 24 h after drug administration. plasma was separated.
(§1) Plasma concentrations of compounds were determined by standard curve calibration method using LC-MS. Using Winnolin 5.2 software, plasma concentration-time data were fitted to pharmacokinetic parameters, including elimination half-life (T1/2), area under the plasma pharmacokinetic curve at the sampling endpoint (AUClast), peak concentration (Cmax), apparent volume of distribution (Vz), total clearance ration (Cl), and absolute bioavailability (F %).

[2] = Drug metabolism properties (pharmacokinetics) in dogs; type: in vivo; conditions: both sexes, plasma; dog, intravenous injection/oral gavage; read-out: Oral bioavailability F % (dog)
Description: (§2) In order to investigate the drug metabolism property of the compounds provided herein in dogs, a compound solution was given to 2 groups of dogs (4 dogs (2 males+2 females) for each group) by intravenous injection/oral gavage at corresponding doses. After 55 min, 15 min, 30 min, 1 h, 2 h, 4 h, 8 h, 12 h, 24 h and 36 h administration, anticoagulated whole blood was collected from dogs, and plasma was separated.
as §1

[3] = Drug metabolism properties (pharmacokinetics) in rats; type: in vivo; conditions: plasma; rat, intravenous injection/oral gavage; read-out: Oral bioavailability F % (rat)
Description: as §2, with “rats,” for “dogs,”, “3 rats” for “2 groups of dogs (4 dogs (2 males+2 females) for each group)”, “5” for “55”, “8” for “8 h, 12 h, 24”, “24” for “36”
as §1

hIL-17A/RA = target: T4, hIL-17A/RA (Homo sapiens, UniProt Q16552); experiment: Reversibility of binding by jump dilution ELISA (hIL-17A/hIL-17RA); conditions: for maintenance of binding to and inhibition of hIL-17A protein (jump dilution, in words): compared with the positive compound
T4 construct: biotin label (inferred from streptavidin-HRP detection)
T4 sequence (Q16552 24-155): T2 sequence (Q16552 24-155)
Description: The reversibility of the binding of the compounds in Examples to hIL-17A and the binding time of the compound-protein complex were qualitatively and quantitatively analyzed by jump dilution assay. The positive compound was the compound of Example 32 in WO2020/127685 A1. 7 nM hIL-17RA were inoculated to a 96-well plate (100 μL for per well), and incubated at 37° C. for 30 min. A blank group was 100 μL of coating buffer solution. After […] incubation at 4° C., the 96-well plate was washed with PBST (0.05% Tween-20) 4 times, 200 μL for per well each time. The 96-well plate was added with 200 μL 3% BSA (PBST diluted) and closed on a shaker at 37° C. for 30 min. […] The configured hIL7A was mixed with an equal volume of compound in a 200 ul centrifuge tube to obtain a protein-compound mixture. The protein-compound mixture was subjected to pre-incubation at room temperature for 15 min. The protein-compound mixture, positive control group and negative control group were diluted 200×. After closing, the 96-well plate was washed 4 times, and added with dilution 100 μL for per well to incubate at 25° C. for 28, 24, 5, 2 and 0 h. After washing the plate 4 times, 100 μL of Streptavidin-HRP coupled antibody diluted with 1% BSA was added and then incubated for 30 min on a shaker at 25° C. After washing the plate 4 times, 100 μL of TMB substrate solution were added, and incubated away from light for 5-15 min at 25° C. (depending on the color of the reaction). After addition of 20% HCl, an absorbance was measure by a microplate reader at 450 nm.

[4] = tested on: imiquimod cream-induced psoriasis model; experiment: Pharmacodynamic test of imiquimod cream-induced psoriasis model in mice; type: in vivo, C57BL/6N mice
Description: The backs of […] female C57BL/6N mice were shaved approximately 2.5×4 cm, and imiquimod (IMQ, Imiquimod) cream was applied continuously from day 1 to day 5 to establish a psoriasis model. The compound 26 provided herein (3, 10, 30 mg/kg) was given once daily by gavage to the mice, an IL-17A antibody solution (Ab, 2 mg/kg) was given by intraperitoneal injection every other day to the mice, or a dexamethasone solution (10 mg/kg) was given once daily by intraperitoneal injection to the mice. […] A skin thickness of mice was measured on the first day and fifth day to examine IMQ-induced skin thickening (FIG. 3B).
The skin of each group of mice was collected on the fifth day to detect IL6 mRNA levels by RT-qPCR (FIG. 3C). […] The plasma of mice in each group was collected on the fifth day to determine the level of IL-6 protein (FIG. 3D).

Row | SMILES | IC50 (hIL-17A) [nM] | IC50 (human IL-17A (hIL-17A)) [nM] | Kd (hIL-17A protein) [nM] | ka (hIL-17A protein) [M⁻¹ s⁻¹] | kd (hIL-17A protein) [s⁻¹] | binding to hIL-17A (SPR, in words) (hIL-17A protein) | bioavailability [1] [%] | bioavailability [2] [%] | bioavailability [3] [%] | maintenance of binding to and inhibition of hIL-17A protein (jump dilution, in words) (hIL-17A/RA) | skin pathological injury, HE staining ([4]; 30 mg/kg, fifth day, FIGS. 4A-4D) | IMQ-induced skin inflammation, AUC of PASI scoring ([4]; 3, 10, 30 mg/kg once daily by gavage, FIG. 3A) | skin IL6 mRNA levels by RT-qPCR ([4]; fifth day, FIG. 3C) | IL-6 protein level in plasma ([4]; fifth day, FIG. 3D) | IMQ-induced skin thickening ([4]; skin thickness first day and fifth day, FIG. 3B) | 50% enzyme activity retention time, Value on hIL-17A/RA (5X cpds) (hIL-17A/RA; jump dilution, 5X cpds) [h] | 50% enzyme activity retention time, Value on hIL-17A/RA (10X cpds) (hIL-17A/RA; jump dilution) [h]
1 | Cc1nonc1C(=O)N[C@H](C(=O)Nc1ccc(-c2c(C)n[nH]c2C)cc1)C1c2ccc(F)cc2OCC12CC2 (stereo partly drawn) [Compound 24] | 30 | 53 | 0.00388 | 12400 | 4.8e-08 | strong binding to hIL-17A and were much stronger than the positive compound | 51 | 27 | 56 | – | – | – | – | – | – | – | –
2 | CCc1nonc1C(=O)N[C@H](C(=O)Nc1ccc(-c2c(C)n[nH]c2C)nc1)C1c2ccc(F)cc2OCC12CC2 (stereo partly drawn) [Compound 26] | 267 | 70 | – | 21300 | 1.98e-08 | strong binding to hIL-17A and were much stronger than the positive compound | 54 | – | 16 | able to maintain binding to and inhibit the activity of hIL-17A protein for a long time | effective in inhibiting IMQ-induced skin inflammatory cell infiltration and damage | attenuated the level of IMQ-induced skin inflammation with effects similar to those of the IL-17A antibody | dose-dependent reversion | inhibited in a dose-dependent manner | reversed the skin thickening caused by IMQ to varying degrees | – | –
3 | Cc1n[nH]c(C)c1-c1ccc(NC(=O)[C@@H](NC(=O)c2ccnn2C(C)C)C2c3ccc(F)cc3OCC23CC3)cn1 (stereo partly drawn) [Compound 18] | 332 | 164 | – | – | – | – | 55 | 41 | 18 | – | – | – | – | – | – | – | –
4 | CCc1nonc1C(=O)N[C@H](C(=O)Nc1ccc(-c2c(C)n[nH]c2C)cc1)C1c2ccc(F)c(F)c2OCC12CC2 (stereo partly drawn) [Compound 58] | 109 | 54 | – | – | – | – | 26 | 16 | 28 | – | – | – | – | – | – | – | –
5 | Cc1n[nH]c(C)c1-c1ccc(NC(=O)[C@@H](NC(=O)c2nonc2C2CC2)C2c3cc(F)c(F)cc3OCC23CC3)cc1 (stereo partly drawn) [Compound 49] | 146 | 146 | – | – | – | – | 37 | 20 | 17 | – | – | – | – | – | – | – | –
6 | CCc1nonc1C(=O)N[C@H](C(=O)Nc1ccc(-c2c(C)n[nH]c2C)cc1)C1c2cc(F)c(F)cc2OCC12CC2 (stereo partly drawn) [Compound 43] | 57 | 55 | 0.00132 | 14200 | 1.87e-08 | strong binding to hIL-17A and were much stronger than the positive compound | 49 | 18 | 36 | able to maintain binding to and inhibit the activity of hIL-17A protein for a long time | – | – | – | – | – | >28 | >28
7 | Cc1n[nH]c(C)c1-c1ncc(NC(=O)[C@@H](NC(=O)c2ccnn2C(C)C)C2c3cc(F)c(F)cc3OCC23CC3)cc1F (stereo partly drawn) [Compound 47] | 172 | 88 | 0.00169 | 20400 | 3.44e-08 | strong binding to hIL-17A and were much stronger than the positive compound | – | – | – | able to maintain binding to and inhibit the activity of hIL-17A protein for a long time | – | – | – | – | – | – | >28
